Consider two molecules from ChEMBL document CHEMBL4507259 (2021).

Where only a bound is given, the exact number is not on record here.

The subject of one assay is DU-145. As to the kind of experiment: DU-145 Proliferation. In kind it is functional, cell-based. To be noted: Homo sapiens.
Assay [1] addresses Adenosine receptor A3 (Homo sapiens) (UniProt P0DMS8). Briefly: A3 (h) CEREP ligand profiling. To be noted: filed as agonist, Compound concentration 10.0 uM.
Assay [2] concerns the target Adenosine receptor A1 (Homo sapiens) (UniProt P30542). Briefly: A1 (h) CEREP ligand profiling. The note with it: filed as antagonist, Compound concentration 10.0 uM.
The next assay relates to NCI-H1693. As to the kind of experiment: H1693 cell line Proliferation assay. The assay is classed as functional, Homo sapiens. To be noted: Compound concentration 10 uM; time 3 day.
The test system of a further assay is NCI-H441. Briefly: H441 cell line Proliferation assay. The assay is classed as functional, Homo sapiens. To be noted: Compound concentration 10 uM; time 3 day.
For the next assay, the system named is HT-144. Briefly: HT-144 cell line Proliferation assay. The assay is classed as functional, Homo sapiens. The note with it: Compound concentration 10 uM; time 5 day.
In another assay the test system is Hs 294T. Briefly: Hs294T cell line Proliferation assay. The note with it: Compound concentration 10 uM; time 5 day. The assay is classed as functional, Homo sapiens.
A further assay relates to SK-MEL-24. As to the kind of experiment: SKMEL24 cell line Proliferation assay. In kind it is functional, Homo sapiens. To be noted: Compound concentration 10 uM; time 5 day.
The next assay concerns NCI-H1048. As to the kind of experiment: H1048 cell line Proliferation assay. The assay is classed as functional, Homo sapiens. To be noted: Compound concentration 10 uM; time 4 day.
For a further assay, the system named is NCI-H1836. As to the kind of experiment: H1836 cell line Proliferation assay. The assay is classed as functional, Homo sapiens. To be noted: Compound concentration 10 uM; time 4 day.
The test system of another assay is NCI-H1930. As to the kind of experiment: H1930 cell line Proliferation assay. The assay is classed as functional, Homo sapiens. The note with it: Compound concentration 10 uM; time 4 day.
In a further assay the test system is MDA-MB-453. As to the kind of experiment: MDA_MB_453 cell line Proliferation assay. In kind it is functional, Homo sapiens. The note with it: Compound concentration 10 uM; time 5 day.
A further assay concerns RPMI-8226. As to the kind of experiment: RPMI-8226 cell line Proliferation assay. The assay is classed as functional, Homo sapiens. To be noted: Compound concentration 10 uM; time 3 day.
A further assay relates to OPM-2. As to the kind of experiment: OPM-2 cell line Proliferation assay. The assay is classed as functional, Homo sapiens. To be noted: Compound concentration 10 uM; time 3 day.
In the next assay the test system is KARPAS-422. Briefly: Karpas422 cell line Proliferation assay. The assay is classed as functional, Homo sapiens. The note with it: Compound concentration 10 uM; time 3 day.
The next assay deals with BJAB. As to the kind of experiment: BJAB cell line Proliferation assay. The assay is classed as functional, Homo sapiens. To be noted: Compound concentration 10 uM; time 3 day.
A further assay deals with Daudi. Briefly: Daudi cell line Proliferation assay. In kind it is functional, Homo sapiens. To be noted: Compound concentration 10 uM; time 3 day.
In another assay the test system is Mino. As to the kind of experiment: Mino cell line Proliferation assay. In kind it is functional, Homo sapiens. To be noted: Compound concentration 10 uM; time 3 day.
The test system of another assay is SU-DHL-6. Briefly: SuDHL6 cell line Proliferation assay. The assay is classed as functional, Homo sapiens. The note with it: Compound concentration 10 uM; time 3 day.
In another assay the test system is Pfeiffer. As to the kind of experiment: Pfeiffer cell line Proliferation assay. The assay is classed as functional, Homo sapiens. To be noted: Compound concentration 10 uM; time 3 day.
The next assay concerns SU-DHL-2. Briefly: SuDHL2 cell line Proliferation assay. The assay is classed as functional, Homo sapiens. To be noted: Compound concentration 10 uM; time 3 day.
A further assay concerns SC1. Briefly: Sc1 cell line Proliferation assay. In kind it is functional, Homo sapiens. To be noted: Compound concentration 10 uM; time 3 day.
A further assay relates to Farage. Briefly: Farage cell line Proliferation assay. In kind it is functional, Homo sapiens. The note with it: Compound concentration 10 uM; time 3 day.
The test system of a further assay is SKM-1. Briefly: SKM-1 cell line Proliferation assay. The assay is classed as functional, Homo sapiens. The note with it: Compound concentration 10 uM; time 3 day.
A further assay concerns U-937. Briefly: U937 cell line Proliferation assay. In kind it is functional, Homo sapiens. The note with it: Compound concentration 10 uM; time 3 day.
The target in assay [3] is Beta-adrenergic receptor kinase 1 (Homo sapiens) (UniProt P25098). To be noted: Compound concentration 1000.0 nM.
Assay [4] has as its target Mitogen-activated protein kinase kinase kinase kinase 1 (Homo sapiens) (UniProt Q92918). To be noted: Compound concentration 1000.0 nM.
In assay [5] the target is Serine/threonine-protein kinase RIO3 (Homo sapiens) (UniProt O14730). To be noted: Compound concentration 1000.0 nM.
In assay [6] the target is 5-hydroxytryptamine receptor 1D (Homo sapiens) (UniProt P28221). To be noted: Compound concentration 10.0 uM.
For assay [7], the target named is Sodium-dependent noradrenaline transporter (Homo sapiens) (UniProt P23975). The note with it: Compound concentration 10.0 uM.
Assay [8] concerns the target T1, Alpha-2B adrenergic receptor (Homo sapiens) (UniProt P18089).
T1 sequence (whole entry): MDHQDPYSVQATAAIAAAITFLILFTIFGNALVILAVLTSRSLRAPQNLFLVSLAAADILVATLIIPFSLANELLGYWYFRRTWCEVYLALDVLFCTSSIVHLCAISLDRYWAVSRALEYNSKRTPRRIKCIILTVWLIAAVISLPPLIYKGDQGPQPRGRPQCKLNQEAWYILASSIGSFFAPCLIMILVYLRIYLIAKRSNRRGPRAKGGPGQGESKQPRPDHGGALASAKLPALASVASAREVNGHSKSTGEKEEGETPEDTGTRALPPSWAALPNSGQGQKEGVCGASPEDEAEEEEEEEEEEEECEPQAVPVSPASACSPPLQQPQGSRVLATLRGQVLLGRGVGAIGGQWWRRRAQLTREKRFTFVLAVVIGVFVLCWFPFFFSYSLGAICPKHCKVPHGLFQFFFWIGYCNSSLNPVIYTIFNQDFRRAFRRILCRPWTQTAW
The note with it: Compound concentration 10.0 uM.

For assay [9], the target named is T2, 5-hydroxytryptamine receptor 1A (Homo sapiens) (UniProt P08908).
T2 sequence (whole entry): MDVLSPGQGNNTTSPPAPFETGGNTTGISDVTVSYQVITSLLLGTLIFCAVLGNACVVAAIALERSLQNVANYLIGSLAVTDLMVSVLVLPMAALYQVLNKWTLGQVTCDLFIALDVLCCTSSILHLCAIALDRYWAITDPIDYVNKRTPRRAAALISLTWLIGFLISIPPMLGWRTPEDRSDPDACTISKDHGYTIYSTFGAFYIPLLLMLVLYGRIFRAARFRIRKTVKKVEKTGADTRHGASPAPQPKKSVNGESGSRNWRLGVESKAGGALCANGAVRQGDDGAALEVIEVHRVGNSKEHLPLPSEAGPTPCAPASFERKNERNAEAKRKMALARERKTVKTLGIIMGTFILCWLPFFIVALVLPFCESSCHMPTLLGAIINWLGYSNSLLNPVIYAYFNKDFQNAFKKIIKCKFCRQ
As to the kind of experiment: 5-HT1A (h) CEREP ligand profiling. To be noted: filed as agonist, Compound concentration 10.0 uM.

The target of assay [10] is Endothelin receptor type B (Homo sapiens) (UniProt P24530). As to the kind of experiment: ETB (h) CEREP ligand profiling. To be noted: filed as agonist, Compound concentration 10.0 uM.
Assay [11] deals with Cholecystokinin receptor type A (Homo sapiens) (UniProt P32238). Briefly: CCK1 (CCKA) (h) CEREP ligand profiling. To be noted: filed as agonist, Compound concentration 10.0 uM.
The target of assay [12] is Adenosine receptor A2b (Homo sapiens) (UniProt P29275). Briefly: A2B (h) CEREP ligand profiling. To be noted: filed as antagonist, Compound concentration 10.0 uM.
The target of assay [13] is Insulin-like growth factor 1 receptor (Homo sapiens) (UniProt P08069). To be noted: Compound concentration 1000.0 nM.
The target of assay [14] is Serine/threonine-protein kinase N1 (Homo sapiens) (UniProt Q16512). To be noted: Compound concentration 1000.0 nM.
For assay [15], the target named is T3, Alpha-1A adrenergic receptor (Homo sapiens) (UniProt P35348).
T3 sequence (whole entry): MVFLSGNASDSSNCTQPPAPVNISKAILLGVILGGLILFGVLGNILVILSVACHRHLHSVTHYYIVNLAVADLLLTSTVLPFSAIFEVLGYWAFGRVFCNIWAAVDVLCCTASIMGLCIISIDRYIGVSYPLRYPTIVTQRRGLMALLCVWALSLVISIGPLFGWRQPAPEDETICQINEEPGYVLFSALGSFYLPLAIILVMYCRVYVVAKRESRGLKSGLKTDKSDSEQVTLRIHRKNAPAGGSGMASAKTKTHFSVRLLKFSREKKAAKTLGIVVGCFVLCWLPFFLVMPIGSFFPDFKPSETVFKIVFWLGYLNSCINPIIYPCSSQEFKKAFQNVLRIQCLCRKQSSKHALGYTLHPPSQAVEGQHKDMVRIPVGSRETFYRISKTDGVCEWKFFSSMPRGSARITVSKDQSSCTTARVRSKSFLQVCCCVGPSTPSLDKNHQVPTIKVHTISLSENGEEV
The note with it: Compound concentration 10.0 uM.

Mitogen-activated protein kinase kinase kinase kinase 1 (Homo sapiens), sequence (Q92918 whole entry, looked up): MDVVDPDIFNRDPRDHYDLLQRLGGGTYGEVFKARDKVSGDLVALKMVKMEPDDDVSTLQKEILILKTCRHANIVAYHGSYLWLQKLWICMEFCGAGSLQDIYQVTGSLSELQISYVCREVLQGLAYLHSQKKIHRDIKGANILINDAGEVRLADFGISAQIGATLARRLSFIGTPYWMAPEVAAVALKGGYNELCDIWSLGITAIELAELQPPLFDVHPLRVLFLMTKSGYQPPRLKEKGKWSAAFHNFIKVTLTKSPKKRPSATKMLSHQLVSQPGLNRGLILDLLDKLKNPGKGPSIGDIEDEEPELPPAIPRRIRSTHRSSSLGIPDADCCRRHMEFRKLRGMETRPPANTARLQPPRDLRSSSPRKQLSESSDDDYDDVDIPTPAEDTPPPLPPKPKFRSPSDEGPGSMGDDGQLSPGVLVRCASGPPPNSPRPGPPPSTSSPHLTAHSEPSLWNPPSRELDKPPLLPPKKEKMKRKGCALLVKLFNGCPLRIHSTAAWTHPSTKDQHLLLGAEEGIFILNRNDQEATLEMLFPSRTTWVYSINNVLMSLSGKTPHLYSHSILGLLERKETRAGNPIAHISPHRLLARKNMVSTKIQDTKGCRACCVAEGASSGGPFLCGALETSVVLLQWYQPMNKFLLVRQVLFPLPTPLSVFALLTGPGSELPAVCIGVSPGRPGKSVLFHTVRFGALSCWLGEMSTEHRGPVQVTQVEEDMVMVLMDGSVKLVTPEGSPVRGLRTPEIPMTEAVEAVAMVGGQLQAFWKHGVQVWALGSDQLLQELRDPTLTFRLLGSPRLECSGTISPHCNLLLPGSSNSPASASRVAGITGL
Serine/threonine-protein kinase RIO3 (Homo sapiens), sequence (O14730 whole entry): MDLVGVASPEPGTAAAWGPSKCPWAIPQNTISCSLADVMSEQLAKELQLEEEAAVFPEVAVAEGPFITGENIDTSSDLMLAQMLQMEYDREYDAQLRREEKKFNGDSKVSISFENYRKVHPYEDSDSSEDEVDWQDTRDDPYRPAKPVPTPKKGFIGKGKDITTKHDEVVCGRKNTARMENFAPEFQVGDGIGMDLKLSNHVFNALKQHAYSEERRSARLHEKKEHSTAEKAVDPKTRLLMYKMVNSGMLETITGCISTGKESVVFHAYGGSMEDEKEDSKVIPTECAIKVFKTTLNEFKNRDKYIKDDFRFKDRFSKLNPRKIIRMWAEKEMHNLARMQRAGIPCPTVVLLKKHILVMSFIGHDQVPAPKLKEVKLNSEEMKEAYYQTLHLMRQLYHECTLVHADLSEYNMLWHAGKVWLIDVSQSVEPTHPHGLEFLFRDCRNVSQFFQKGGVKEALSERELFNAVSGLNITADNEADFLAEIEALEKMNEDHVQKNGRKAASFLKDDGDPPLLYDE
Beta-adrenergic receptor kinase 1 (Homo sapiens), sequence (P25098 whole entry): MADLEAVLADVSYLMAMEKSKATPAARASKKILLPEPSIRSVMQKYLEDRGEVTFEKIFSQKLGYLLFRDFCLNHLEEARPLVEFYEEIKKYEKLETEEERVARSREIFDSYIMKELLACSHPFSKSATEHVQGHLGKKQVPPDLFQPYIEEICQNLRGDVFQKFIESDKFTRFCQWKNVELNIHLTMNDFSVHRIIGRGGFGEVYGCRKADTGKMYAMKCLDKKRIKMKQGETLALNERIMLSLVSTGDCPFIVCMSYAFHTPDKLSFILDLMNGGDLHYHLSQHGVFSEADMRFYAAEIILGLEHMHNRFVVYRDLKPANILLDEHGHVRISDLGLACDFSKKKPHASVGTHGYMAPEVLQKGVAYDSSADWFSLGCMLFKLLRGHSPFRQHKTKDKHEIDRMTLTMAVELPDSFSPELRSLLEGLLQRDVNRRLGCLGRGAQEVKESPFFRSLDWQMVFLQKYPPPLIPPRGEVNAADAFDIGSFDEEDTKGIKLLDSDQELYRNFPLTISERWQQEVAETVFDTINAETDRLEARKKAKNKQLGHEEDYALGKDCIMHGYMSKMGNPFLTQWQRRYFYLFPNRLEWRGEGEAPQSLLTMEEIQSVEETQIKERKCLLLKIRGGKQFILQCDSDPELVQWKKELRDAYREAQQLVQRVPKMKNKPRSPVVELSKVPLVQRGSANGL
5-hydroxytryptamine receptor 1D (Homo sapiens), sequence (P28221 whole entry): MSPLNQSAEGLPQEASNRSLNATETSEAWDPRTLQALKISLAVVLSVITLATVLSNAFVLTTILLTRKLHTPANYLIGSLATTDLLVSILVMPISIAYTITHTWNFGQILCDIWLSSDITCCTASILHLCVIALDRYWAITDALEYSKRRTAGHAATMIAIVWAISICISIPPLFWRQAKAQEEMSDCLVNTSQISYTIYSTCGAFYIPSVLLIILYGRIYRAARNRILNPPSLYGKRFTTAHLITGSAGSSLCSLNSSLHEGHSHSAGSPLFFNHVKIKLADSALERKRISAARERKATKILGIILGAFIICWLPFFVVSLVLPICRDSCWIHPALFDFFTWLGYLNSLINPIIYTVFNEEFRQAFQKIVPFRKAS
Sodium-dependent noradrenaline transporter (Homo sapiens), sequence (P23975 whole entry): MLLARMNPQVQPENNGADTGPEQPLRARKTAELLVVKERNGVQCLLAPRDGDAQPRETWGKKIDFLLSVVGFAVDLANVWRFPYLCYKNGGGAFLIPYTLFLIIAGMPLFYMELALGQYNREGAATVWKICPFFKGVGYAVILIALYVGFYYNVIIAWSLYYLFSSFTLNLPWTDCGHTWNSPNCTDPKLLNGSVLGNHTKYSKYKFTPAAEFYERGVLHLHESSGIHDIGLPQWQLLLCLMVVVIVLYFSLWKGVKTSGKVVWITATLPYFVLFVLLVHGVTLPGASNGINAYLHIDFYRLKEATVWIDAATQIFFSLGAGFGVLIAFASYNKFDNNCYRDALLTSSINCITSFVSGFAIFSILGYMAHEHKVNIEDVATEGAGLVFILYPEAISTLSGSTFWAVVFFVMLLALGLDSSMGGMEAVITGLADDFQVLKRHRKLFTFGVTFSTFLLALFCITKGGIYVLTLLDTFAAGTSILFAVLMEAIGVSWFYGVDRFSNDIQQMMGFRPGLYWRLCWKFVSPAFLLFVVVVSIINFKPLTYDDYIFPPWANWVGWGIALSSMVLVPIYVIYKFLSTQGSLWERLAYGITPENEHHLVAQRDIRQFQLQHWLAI
Cholecystokinin receptor type A (Homo sapiens), sequence (P32238 whole entry): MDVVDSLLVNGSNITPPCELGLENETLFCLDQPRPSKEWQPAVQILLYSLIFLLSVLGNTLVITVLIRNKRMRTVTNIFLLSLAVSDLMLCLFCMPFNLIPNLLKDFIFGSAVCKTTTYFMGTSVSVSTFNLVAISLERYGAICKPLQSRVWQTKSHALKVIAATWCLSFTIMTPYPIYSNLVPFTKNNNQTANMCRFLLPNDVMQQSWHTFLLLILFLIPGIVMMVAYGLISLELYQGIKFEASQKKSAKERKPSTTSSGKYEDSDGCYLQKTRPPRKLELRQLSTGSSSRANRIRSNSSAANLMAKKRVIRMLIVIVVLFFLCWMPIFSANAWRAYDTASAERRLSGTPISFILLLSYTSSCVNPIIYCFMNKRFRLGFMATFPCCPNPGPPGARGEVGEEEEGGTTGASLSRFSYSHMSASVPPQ
Insulin-like growth factor 1 receptor (Homo sapiens), sequence (P08069 31-736 limits assumed): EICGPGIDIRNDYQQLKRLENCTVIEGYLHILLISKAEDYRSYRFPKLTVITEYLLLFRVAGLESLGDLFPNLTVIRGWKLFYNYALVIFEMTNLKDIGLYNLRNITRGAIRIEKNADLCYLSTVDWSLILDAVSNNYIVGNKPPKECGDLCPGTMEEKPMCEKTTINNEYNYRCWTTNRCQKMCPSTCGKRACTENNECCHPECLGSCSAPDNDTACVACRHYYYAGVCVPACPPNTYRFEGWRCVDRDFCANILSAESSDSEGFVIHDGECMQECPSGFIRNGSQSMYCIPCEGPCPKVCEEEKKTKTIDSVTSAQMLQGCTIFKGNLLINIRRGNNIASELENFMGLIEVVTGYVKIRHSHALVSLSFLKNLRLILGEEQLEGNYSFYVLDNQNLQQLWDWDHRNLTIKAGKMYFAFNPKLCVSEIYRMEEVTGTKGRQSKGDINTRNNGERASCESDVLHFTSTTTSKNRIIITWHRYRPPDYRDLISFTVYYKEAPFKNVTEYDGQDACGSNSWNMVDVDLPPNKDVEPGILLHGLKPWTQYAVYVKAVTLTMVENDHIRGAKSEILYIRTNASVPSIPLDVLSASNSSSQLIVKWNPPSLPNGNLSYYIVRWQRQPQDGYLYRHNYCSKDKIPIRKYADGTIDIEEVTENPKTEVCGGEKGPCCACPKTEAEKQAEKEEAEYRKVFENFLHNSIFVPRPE
Insulin-like growth factor 1 receptor (Homo sapiens), sequence (P08069 741-1367 limits assumed): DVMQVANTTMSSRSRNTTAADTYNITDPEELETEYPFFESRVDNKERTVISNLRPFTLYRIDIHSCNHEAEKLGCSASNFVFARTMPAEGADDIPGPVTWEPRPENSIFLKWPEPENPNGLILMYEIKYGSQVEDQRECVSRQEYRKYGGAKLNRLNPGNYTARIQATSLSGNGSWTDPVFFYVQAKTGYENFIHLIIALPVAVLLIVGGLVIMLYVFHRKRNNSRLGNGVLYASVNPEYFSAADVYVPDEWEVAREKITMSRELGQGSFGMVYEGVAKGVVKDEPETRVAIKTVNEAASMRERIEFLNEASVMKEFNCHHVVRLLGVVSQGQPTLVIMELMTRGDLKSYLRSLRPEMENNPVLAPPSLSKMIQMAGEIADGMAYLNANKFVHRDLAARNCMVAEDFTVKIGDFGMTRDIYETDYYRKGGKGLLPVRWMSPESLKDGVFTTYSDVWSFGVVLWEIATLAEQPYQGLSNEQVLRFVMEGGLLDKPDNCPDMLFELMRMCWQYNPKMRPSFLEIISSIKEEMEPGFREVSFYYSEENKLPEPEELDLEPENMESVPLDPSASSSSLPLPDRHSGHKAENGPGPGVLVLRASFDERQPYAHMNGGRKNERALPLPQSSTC

In the case of `CNC(=O)Nc1ccc2c(c1)CC[C@@]21OC(=O)N(CC(=O)N(Cc2ccc(F)cc2)[C@@H](C)C(F)(F)F)C1=O` [A-485], the IC50 in the assay on DU-145 is reported as > 10 µM (not active). Besides, the inhibition was 40% in assay [1]; 9% in assay [2]; 18% in assay [6]; -3.76% in assay [7]; 26.5% in assay [8]. Also, the “Cell Proliferation EC50” value is 2.367 µM with NCI-H1693; above 10 µM with NCI-H441; 3.077 µM in the assay on HT-144; 9 µM in the assay with Hs 294T; above 10 µM in the assay on SK-MEL-24; above 10 µM with NCI-H1048. Besides, the “Cell Proliferation EC50” value in the assay with NCI-H1836 was above 10 µM; in the assay on NCI-H1930 it was above 10 µM; with MDA-MB-453, 1.8664 µM; in the assay on RPMI-8226 it was 0.164 µM; in the assay on OPM-2, 0.62 µM; with KARPAS-422 it was 0.2454 µM. Besides, the “Cell Proliferation EC50” value in the assay on BJAB worked out at 0.2813 µM; in the assay on Daudi, 0.4346 µM; in the assay on Mino, 0.5322 µM; in the assay on SU-DHL-6, 0.7457 µM; in the assay with Pfeiffer, 0.8586 µM; in the assay with SU-DHL-2, 0.9538 µM. Also, the “Cell Proliferation EC50” value is 1.689 µM in the assay with SC1, above 10 µM in the assay on Farage, 1.34 µM in the assay on SKM-1 and above 10 µM with U-937. Moreover, the residual activity in assay [3] was 74%; in [4], 99%; in assay [5], 89%.

Regarding `CNC(=O)Nc1ccc2c(c1)[C@@]1(CC2)OC(=O)N(CC(=O)N(Cc2ccc(F)cc2)[C@@H](C)C(F)(F)F)C1=O` [A-486], in the assay with DU-145, the IC50 is > 10 µM (not active). For the same molecule, the inhibition in assay [9] was 8%; in assay [10] it was 8%; in [11], 1%; in assay [12], 1%; in assay [6], 2.22%; in assay [15] it was 0.04%. Further, the inhibition in [8] is 10.2%. The residual activity is 76% in assay [3]; 90% in [4]; 100% in [13]; 98% in assay [14]; 100% in [5].
